Results on three compounds are retold here after patent US20090312286A1, “DERIVATIVES OF 4-TRIMETHYLAMMONIUM-3-AMINOBUTYRATE AND 4-TRIMETHYLPHOSPHONIUM-3-AMINOBUTYRATE AS CPT-INHIBITORS” (SIGMA-TAU INDUSTRIE FARMACEUTICHE RIUNITE S.P.A., priority 2006, published 2009).

The target in experiment [1] is T1, CPT1 in rat mitochondria (heart) (Rattus norvegicus, UniProt Q63704).
T1 construct: fresh mitochondrial preparations obtained from the liver or heart of Fischer rats; from tissue; host or cells: rat heart mitochondria (Fischer rats)
T1 sequence (Q63704 1-772): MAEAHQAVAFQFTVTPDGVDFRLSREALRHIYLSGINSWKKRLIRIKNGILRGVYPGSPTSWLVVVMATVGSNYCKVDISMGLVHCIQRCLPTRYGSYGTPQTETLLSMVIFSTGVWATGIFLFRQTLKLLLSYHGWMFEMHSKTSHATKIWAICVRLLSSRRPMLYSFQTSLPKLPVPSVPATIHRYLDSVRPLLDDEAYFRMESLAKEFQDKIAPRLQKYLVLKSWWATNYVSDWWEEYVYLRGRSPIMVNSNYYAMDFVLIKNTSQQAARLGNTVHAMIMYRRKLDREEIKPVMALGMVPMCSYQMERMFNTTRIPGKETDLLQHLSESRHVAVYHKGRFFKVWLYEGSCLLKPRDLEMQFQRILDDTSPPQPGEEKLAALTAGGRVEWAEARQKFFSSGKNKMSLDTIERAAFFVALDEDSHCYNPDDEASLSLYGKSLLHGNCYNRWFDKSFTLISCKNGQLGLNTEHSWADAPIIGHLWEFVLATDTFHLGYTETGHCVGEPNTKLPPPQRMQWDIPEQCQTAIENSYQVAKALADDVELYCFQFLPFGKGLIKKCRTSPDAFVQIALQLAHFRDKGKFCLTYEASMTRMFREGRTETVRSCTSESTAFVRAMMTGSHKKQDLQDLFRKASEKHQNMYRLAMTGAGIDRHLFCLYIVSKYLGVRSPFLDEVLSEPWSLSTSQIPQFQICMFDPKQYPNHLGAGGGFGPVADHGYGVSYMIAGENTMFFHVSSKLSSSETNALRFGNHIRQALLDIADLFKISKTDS
Kind of experiment: In vitro inhibition of CPT I, rat heart mitochondria. The format is biochemical. As to conditions: CPT1, heart mitochondria of Fischer rats, 50 μM palmitoyl-CoA, 10 mM L-carnitine, 37° C., 1 minute. The protocol: The inhibition of CPT was evaluated on fresh mitochondrial preparations obtained from the liver or heart of Fischer rats, fed normally; the mitochondria taken from the liver or heart are suspended in a 75 mM sucrose buffer, EGTA 1 mM, pH 7.5. 100 μl of a mitochondrial suspension, containing 50 μM of [^14C] palmitoyl-CoA (spec.act. 10000 dpm/mole) and 10 mM of L-carnitine, are incubated at 37° C. in the presence of stepped concentrations (0-3 mM) of product under examination.
(§1) The IC50 is then determined.

The target of experiment [2] is T2, CPT1 in rat mitochondria (liver) (Rattus norvegicus, UniProt P32198).
T2 construct: fresh mitochondrial preparations obtained from the liver or heart of Fischer rats; from tissue; host or cells: rat liver mitochondria (Fischer rats)
T2 sequence (P32198 1-773): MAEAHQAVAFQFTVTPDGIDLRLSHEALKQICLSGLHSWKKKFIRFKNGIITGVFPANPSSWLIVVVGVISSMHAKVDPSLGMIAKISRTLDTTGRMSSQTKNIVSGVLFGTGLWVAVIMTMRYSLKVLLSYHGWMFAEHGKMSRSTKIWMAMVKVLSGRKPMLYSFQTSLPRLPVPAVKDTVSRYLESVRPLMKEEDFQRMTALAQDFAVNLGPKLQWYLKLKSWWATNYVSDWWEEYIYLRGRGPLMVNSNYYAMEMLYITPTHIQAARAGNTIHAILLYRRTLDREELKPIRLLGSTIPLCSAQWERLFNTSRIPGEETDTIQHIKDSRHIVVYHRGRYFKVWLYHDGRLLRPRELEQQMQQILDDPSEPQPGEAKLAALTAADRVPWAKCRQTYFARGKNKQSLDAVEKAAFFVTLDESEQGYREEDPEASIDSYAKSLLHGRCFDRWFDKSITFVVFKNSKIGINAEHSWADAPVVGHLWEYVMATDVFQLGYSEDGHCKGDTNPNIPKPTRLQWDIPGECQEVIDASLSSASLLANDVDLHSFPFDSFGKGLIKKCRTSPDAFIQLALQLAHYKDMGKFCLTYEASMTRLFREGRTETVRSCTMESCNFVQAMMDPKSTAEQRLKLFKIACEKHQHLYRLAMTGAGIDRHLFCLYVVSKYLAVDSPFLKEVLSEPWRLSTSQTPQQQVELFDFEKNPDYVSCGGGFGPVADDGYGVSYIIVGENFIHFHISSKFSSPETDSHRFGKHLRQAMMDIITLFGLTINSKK
The experiment in a line: In vitro inhibition of CPT I, rat liver mitochondria. As to conditions: for IC50: CPT1, liver mitochondria of Fischer rats, 50 μM palmitoyl-CoA, 10 mM L-carnitine, 37° C., 1 minute; for Ratio: IC50 (heart) / IC50 (liver). It counts as biochemical. The protocol: 100 μl of a mitochondrial suspension, containing 50 μM of [^14C] palmitoyl-CoA (spec.act. 10000 dpm/mole) and 10 mM of L-carnitine, are incubated at 37° C. in the presence of stepped concentrations (0-3 mM) of product under examination.
as §1

The subject of experiment [3] is β-hydroxybutyrate production. The experiment in a line: Inhibition of ketone bodies production in vivo in fasted rats. The arrangement: species or system rat. As to conditions: for reduction of β-hydroxybutyrate levels / time to reach minimum β-hydroxybutyrate values: rats fasted 17 hours; for reduction of β-hydroxybutyrate levels: single oral dose equimolar to 10 mg/Kg of ST1326, measured at 3 and 6 hours; for time to reach minimum β-hydroxybutyrate values: single oral dose equimolar to 10 mg/Kg of ST1326, values stable for additional 3 hours; for ED50: Rattus norvegicus, single oral treatment, calculated on AUC of β-hydroxybutyrate from time 0 to 9 hours. The protocol: The compounds were administered per os at 9:00 after 17 hours of fasting (n=5) at doses equimolar to 10 mg/kg of ST1326, which is used as reference compound.
The inhibition of CPT and consequently of β-hydroxybutyrate production operated by ST2425 and ST2452 was evaluated in vivo in rats fasted from 17 hours, at doses equimolar to 10 mg/Kg of ST1326 used as reference compound. β-hydroxybutyrate levels were measured at 3 and 6 hours from single oral treatment.
For compound ST2425, inhibition of ketone bodies production was also evaluated at the dosages of 0, 1, 3, 7, 10 mg/kg in rats fasted for 16 hours, following the reduction of β-hydroxybutyrate for 9 hours after single oral treatment.

Experiment [4] has as its system db/db mice. The experiment in a line: Antihyperglycemic activity in db/db mice. As to conditions: vs control. The format is in vivo, mouse. The protocol: ST2425 and ST2452 were administered to db/db mice for 12 days at 30 mg/kg/day, using ST1326 at a higher dose (80 mg/kg/day) as reference compound. At the end of the treatment, serum glucose levels were evaluated after 16 hours fasting and 2 hours from last administration.

Experiment [5] concerns C57BL/6J mice. The experiment in a line: Effect on food intake and body weight of repeated intracerebroventricular administration. The format is in vivo, mouse. The conditions noted are these: for Mice weight / 24 hours food intake: C57BL6/J mice, Mean ± S.D. The protocol: Two groups of 8 C57BL/6J mice each (ST2425 and Control) were injected icv (3 μL) with 250 pmoles (0.113 μg) of ST2425 dissolved in RPMI 1640 (vehicle), for 4 days (starting from day 0). The animals were slightly confused by isofluorane anestesia. The head was positioned in an apparatus used to reveal a “virtual bregma” without opening the skin. The injection was performed with a syringe at 3.5 mm of depth, using the following coordinates from Bregma: 1 mm on the left of the midsagittal suture and 3 mm posterior (lateral ventricle). The animals were treated at 5:00 p.m. and food intake was monitored at 8:00 a.m. of the day after. Starting from the day after the first treatment, food was removed from 8:00 a.m. to 5:00 p.m.
Statistical analysis was performed using two way repeated measures ANOVA followed by Student, Newman, Keuls test as post-hoc analysis.

For experiment [6], the system named is Sprague Dawley rats. Kind of experiment: Effect on food intake of intranasal administration in normal rats. The conditions noted are these: intranasal 320 μg/40 μL/rat for 3 days, starting from the day after the second treatment, FIG. 3. The format is in vivo. How it is done: FIG. 3 reports the food intake (expressed as g/kg b.w.) in Sprague Dawley rats, treated intranasally for 3 days with ST2425 (320 μg/40 μl/rat) equally subdivided in the two nostrils. (Mean±S.D. (n=5). One way ANOVA post-hoc test SNK *p≦0.05 vs Control)
To test the activity on food consumption of the compounds of the present invention after intranasal administration, ST2425 was given to normally-fed Sprague Dawley rats (320 μg/40 μL/rat, in citrate buffer 10 mmol/L pH 5.0, equally subdivided into the two nostrils) 2 h before the dark cycle. The compound was administered for 3 days (starting from day 0) and food consumption was measured every time for the following 24 h. Five rats were considered for each group.

Where [7] appears, read: day 1, icv 250 pmoles for 4 days.
The mark [8] stands for this setting: day 2, icv 250 pmoles for 4 days.
Setting [9] is: day 3, icv 250 pmoles for 4 days.
Where [10] appears, read: day 4, icv 250 pmoles for 4 days.
Where [11] appears, read: days 3 and 4, statistically significant.
Where [12] appears, read: over the experiment, icv 250 pmoles for 4 days.

One may read the IC50 as the point on the concentration scale where inhibition reaches its midpoint. In general, ED50 refers to the dose that gives a 50% effect, or the effect in half of the subjects.

The structures appear in SMILES notation.

Consider `CCCCCCOc1cccc(OCCCCNC(=O)N[C@H](CC(=O)[O-])C[P+](C)(C)C)c1` [ST2452, (R)-4-trimethylphosphonium-3-[[4-[(3-hexyloxy)phenoxy]butyl]carbamoyl]-amino-butyrate], for which inhibition in experiment [1] was half-maximal at 57.3 µM (IC50). In experiment [2], the IC50 amounted to 0.12 µM and the Ratio is listed as 478. Moreover, in experiment [3], the “reduction of β-hydroxybutyrate levels” value was “higher and faster with respect to ST1326”; the “time to reach minimum β-hydroxybutyrate values” was 3 h. Further, in experiment [4] (30 mg/kg/day for 12 days), the “reduction of glucose levels” value stood at 30%.
Take `CCCCCCCCCCCCCCNC(=O)N[C@H](CC(=O)[O-])C[N+](C)(C)C` [ST1326, R-4-trimethyl ammonium-3-(tetradecylcarbamoyl)-aminobutyrate, reference compound]: the Ratio in experiment [2] is recorded as 135. Moreover, in experiment [3] (rats fasted 16 hours), the ED50 was 14.5 mg/kg. The “reduction of glucose levels” value in experiment [4] (80 mg/kg/day for 12 days) was 26%.
For the compound `CCCCCCOc1cccc(OCCCCNC(=O)N[C@H](CC(=O)[O-])C[N+](C)(C)C)c1` [ST2425, (R)-4-trimethylammonium-3-[[4-[(3-hexyloxy)-phenoxy]butyl]carbamoyl]-amino-butyrate], the IC50 came out at 31.6 µM in experiment [1] and 0.27 µM in experiment [2]. The Ratio in experiment [2] is 117. The ED50 in experiment [3] (rats fasted 16 hours) is 3.7 mg/kg. Moreover, the “effect on ketone bodies levels, dose relation” value in experiment [3] (fasted rats, FIG. 2) is recorded as “dose-related effect”. Further, the “onset of action on ketone bodies levels” value in experiment [3] (rats fasted 16 hours, single oral treatment 1-10 mg/kg, FIG. 2) is reported as “faster onset of action”. Further, the “reduction of β-hydroxybutyrate levels” value in experiment [3] was “higher and faster with respect to ST1326”. Further, the “time to reach minimum β-hydroxybutyrate values” in experiment [3] turned out to be 3 h. In experiment [4] (30 mg/kg/day for 12 days), the “reduction of glucose levels” value was determined as 41%. Moreover, the Mice weight turned out to be 22.2 ± 0.91 g in experiment [5] (day 0, icv 250 pmoles for 4 days); 21.2 ± 0.96 g in experiment [5] (setting [7]); 20.5 ± 1.14 g in experiment [5] (setting [8]); 20.0 ± 0.69 g in experiment [5] (setting [9]); 20.1 ± 0.64 g in experiment [5] (setting [10]). The “24 hours food intake” value in experiment [5] (setting [7]) came out at 3.15 ± 0.61 g; in experiment [5] (setting [8]), 3.31 ± 0.70 g; in experiment [5] (setting [9]), 3.35 ± 0.73 g; in experiment [5] (setting [10]), 3.55 ± 0.63 g. In addition, the “change of mice weight” value in experiment [5] (day 2, statistically significant) is recorded as −5%; in experiment [5] (setting [11]) it was −10%. The “reduction of food intake” value in experiment [5] (setting [11]) was “about 30%”. Besides, the “change of food consumption with respect to the control group” value in experiment [5] (setting [12]) is on record as −25%. For the same compound, the “change of mice weight with respect to the control group” value in experiment [5] (setting [12]) was −7%. Further, the “food consumption with respect to controls” value in experiment [6] is recorded as “significant reduction of food consumption”.
